Numbered stars: 1 amine (or outer) side, 2 acyl side, 3 side chain; on linkers, the order of the positions; unused ones are H or OH. Square brackets hold non-standard residues; d marks the D form. Peptide text beside a SMILES is read from it. X1 = C[C@@H](O)[C@@H](C(=O)[*:2])N(c1c2ccccc2nc2ccccc12)[*:1]
Test system: CHO cells
Assay: MTT cell viability (cytotoxicity) assay
Format: cell-based, Chinese hamster
Conditions: concentrations as high as 100 μM, 2 hour incubation period
From the text: The cytotoxicity of peptide 1 and octopeptides 2-5 was established in Chinese hamster ovary (CHO) cells in order to select a minimal octopeptide concentration suitable for detecting the constructs by flow cytometry and fluorescence microscopy on live cells. The cytotoxicity of each construct was established using the MTT cell viability assay (FIG. 1; Mosmann, 1983). […] Linear polymers having a mass of less than 13 kDa were shown not to be cytotoxic to HeLa cells (Arnold et al., 1979). […] At a concentration of 1 μM, none of the octopeptides were cytotoxic to CHO cells (FIG. 1). […] The penetration and localization of acridine and rhodamine chromophores in viable CHO cells were observed during fluorescence microscopy and flow cytometry experiments by exposing cells to concentrations of octopeptides ranging from 0.1 to 1 μM. […]
The quantitative MTT colorimetric assay developed by Mosmann (1983) was used to determine the toxicity of peptide constructs of the invention toward CHO cells. […] The blue MTT formazan product generated by living cells was quantified by measuring the optical density of the cellular extract at 620 nm. […] Absorbance values were translated into measurements of cell viability and reflect the average of experiments performed in triplicate.

With `CC(C)[C@H](NC(=O)[C@H](CCCCN)NC(=O)[C@H](CCCNC(=N)N)NC(=O)[C@H](CCCCN)NC(=O)[C@H](CCCCN)NC(=O)[C@H](CCCCN)NC(=O)[C@@H]1CCCN1C(=O)[C@@H]1CCCN1C(=O)[C@@H](Nc1c2ccccc2nc2ccccc12)[C@@H](C)O)C(=O)N[C@@H](CCC(=O)O)C(=O)N[C@@H](CC(=O)O)C(=O)N1CCC[C@H]1C(=O)N[C@@H](CCCCN)C(=O)N[C@@H](CCCCN)C(=O)N[C@@H](CCCCN)C(=O)N[C@@H](CCCCN)C(=O)N[C@@H](CCCCN)C(=O)O` [peptide 1, Acr-NLS-CTS] (H-[X1]PPKKKRKVEDPKKKKK-OH) the “toxicity to CHO cells” value was “not toxic”.
